According to publication PMC3923778 (PLoS Currents, 2014):
Entries after “also recorded” stand apart in the source; their conditions may differ. Like-named read-outs stand apart in the source and are kept apart here.

Assays:
PDE3 Cat = test: IMAP PDE activity assay (Scottish Biomedical); format: biochemical; conditions: * Extrapolated value
Procedure: (§1) Studies were conducted at Scottish Biomedical (Scotland, UK)
(§2) Activity against recombinant PDEs (Table 1) was evaluated using the IMAP technology, which is based on high affinity binding of phosphate by immobilized metal coordination complexes on nanoparticles. The binding reagent complexes with phosphate groups on nucleotide monophosphate generated from cyclic nucleotides (cAMP/cGMP) through PDE activity. With fluorescence polarization detection, binding causes a change in the rate of the molecular motion of the phosphate bearing molecule, and results in an increase in the fluorescence polarization value observed for the fluorescent label attached to the substrate.

PDE4 Cat = test: IMAP PDE activity assay (Scottish Biomedical); format: biochemical
Procedure: as §1, §2

R6/2 mice [1] = test: Lower dose behavioral efficacy study in R6/2 mice (Psychogenic); format: in vivo, mouse; conditions: lower doses, 0.3 – 3 mg/kg
R6/2 mice [2] = test: Rear Climbing Test; format: in vivo, mouse; conditions: for Rear Climbing Test Rearing Frequency: p vs Vehicle-treated R6/2 mice / Rear Climbing Test Climbing Instances: p vs Vehicle-treated R6/2 mice / Rear Climbing Test Latency to Climb: p vs Vehicle-treated R6/2 mice / Rear Climbing Test Time Spent Climbing: p vs Vehicle-treated R6/2 mice: BID
Procedure: Motor function testing including open field and rear climbing tests were commenced at 4 weeks of age and continued at weeks 6, 8 and 12, for grip strength test at age weeks 4 and 12 and for rotarod at age weeks 4, 6 and 8. Compound treatment was started at 4 weeks of age after the baseline behavioral tests.
Rear climbing test was performed at age weeks 4, 6, 8 and 12. The mice were tested on Tuesdays. Each animal was placed into custom made pencil holder, and was scored for 5 minutes. During this period the following events were noted: 1) number of times the mouse rears without touching the mesh walls, 2) latency to climb (lifting 4 paws from the floor is labeled climbing), 3) climbing time, and 4) climbing instances.
All values are presented as mean ± Standard Error of Mean (SEM), and differences are considered to be statistically significant at the p < 0.05 level. Statistical analysis was performed using StatsDirect statistical software. Differences between group means were analyzed by 1-way-ANOVA followed by Dunnett’s test (comparison to the control (=vehicle treated TG mice) group). The acquisition of the Cued two-choice swim test was analyzed using Fisher’s exact test.

[3] = Pharmacokinetic analysis in mice; format: in vivo, mouse; conditions: for half-life: read-out: Half-life (t1/2) (converted); for Tmax: read-out: Observed Tmax
Procedure: All PK studies were conducted at Charles River Laboratories (CRL), MA, USA. CRL is fully accredited by the Association for Assessment and Accreditation of Laboratory Animal Care International (AAALAC), and is registered with the United States Department of Agriculture (USDA). All procedures involving animals were conducted humanely and were performed by trained and experienced personnel. The individual study protocols were reviewed and approved by the IACUC of CRL. A total of 48 male C57BL/6NCRL mice were used. Animals were acclimated to the study room environment for 5 days prior to dose administration. Mice were individually housed in micro isolator cages, and were kept on a 12/12 hour light/dark cycle except when interrupted for study procedures. Mice were fed LabDiet Certified Rodent Diet 5002 food ad libitum, except during fasting prior to dose administration, and had access to water ad libitum. […] For the iv doses, the compound was formulated at 1 mg/mL as a dose solution in 2% […] (NMP), 14% Propylene Glycol (PG), 14% Solutol HS–15, 70% 50mM Citrate, pH 4.5 , by volume. For the po dose, the compound was formulated at 1 mg/mL as a solution in 30% PG, 20% Solutol HS–15, 50% 50mM Citrate, pH 4.5, by volume. Aliquots (25 μL) of samples, plasma, and tissue blanks (containing internal standard only), plasma and tissue double blanks (without internal standard), control blanks (solvent only), diluted dose (dilute in plasma from the study species prior to extraction) and matrix calibration standards were dispensed into 96-well plates. Extracting solution with internal standard (100 μL) was added to all samples except matrix double blanks and solvent blanks. Extracting solution without internal standard (100 μL) was added to matrix double blanks. Samples were vortexed and centrifuged for 5 minutes, and the supernatants were transferred to a new plate. An aliquot (50 μL) of Milli-Q water was added to the samples, which were covered and vortexed for 5 minutes. […] Reserpine was used as an internal standard in the LC-MS/MS assay. Mice were divided into four groups of 3 animals each. Two blood samples were collected from each mouse following dosing; the second collection was a terminal sample and brains were also collected at that time as follows: Group 1 at 0.083 and 0.5 hr, Group 2 at 0.25 and 2 hr, Group 3 at 1 and 8 hr and Group 4 at 4 and 24 hr., and brain tissue time points at 0.5, 2, 8 and 24 hr. Non-compartmental pharmacokinetic analyses of the plasma concentration time course were performed using WinNonlin, version 5.2 (Pharsight Corp., Mountain View, California).

aggregated HTT = test: Seprion ligand based ELISA of aggregate load; format: in vivo, mouse; conditions: chronic administration; 13 weeks of age; lower dose group study
Description: Aggregates were captured in Seprion ligand coated plates (Microsens) and detected using the S830 sheep polyclonal or MW8 mouse monoclonal antibodies as described.

PDE1B = target: T1, PDE1B (Homo sapiens, UniProt Q01064); test: Cerep diversity panel screen at 10 µM; format: biochemical
T1 construct: Cerep (contract laboratory)
T1 sequence (Q01064 whole entry, species assumed): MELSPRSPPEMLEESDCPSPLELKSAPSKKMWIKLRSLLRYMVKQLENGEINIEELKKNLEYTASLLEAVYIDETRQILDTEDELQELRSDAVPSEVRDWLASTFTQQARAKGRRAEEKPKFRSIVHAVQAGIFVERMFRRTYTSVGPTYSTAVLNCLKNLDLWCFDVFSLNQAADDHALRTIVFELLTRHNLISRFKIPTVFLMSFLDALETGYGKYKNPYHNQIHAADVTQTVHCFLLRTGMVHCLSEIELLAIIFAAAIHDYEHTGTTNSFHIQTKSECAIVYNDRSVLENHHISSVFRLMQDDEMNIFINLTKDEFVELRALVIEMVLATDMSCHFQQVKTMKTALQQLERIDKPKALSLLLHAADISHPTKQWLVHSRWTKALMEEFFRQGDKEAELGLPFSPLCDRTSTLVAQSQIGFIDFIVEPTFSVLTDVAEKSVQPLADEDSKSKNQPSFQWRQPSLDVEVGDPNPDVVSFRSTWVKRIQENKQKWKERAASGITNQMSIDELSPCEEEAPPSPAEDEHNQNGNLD
Procedure: (§3) Studies were conducted at Cerep (France)

PDE2A = target: T2, PDE2A (Homo sapiens, UniProt O00408); test: Cerep diversity panel screen at 10 µM; format: biochemical
T2 construct: Cerep (contract laboratory)
T2 sequence (O00408 whole entry, species assumed): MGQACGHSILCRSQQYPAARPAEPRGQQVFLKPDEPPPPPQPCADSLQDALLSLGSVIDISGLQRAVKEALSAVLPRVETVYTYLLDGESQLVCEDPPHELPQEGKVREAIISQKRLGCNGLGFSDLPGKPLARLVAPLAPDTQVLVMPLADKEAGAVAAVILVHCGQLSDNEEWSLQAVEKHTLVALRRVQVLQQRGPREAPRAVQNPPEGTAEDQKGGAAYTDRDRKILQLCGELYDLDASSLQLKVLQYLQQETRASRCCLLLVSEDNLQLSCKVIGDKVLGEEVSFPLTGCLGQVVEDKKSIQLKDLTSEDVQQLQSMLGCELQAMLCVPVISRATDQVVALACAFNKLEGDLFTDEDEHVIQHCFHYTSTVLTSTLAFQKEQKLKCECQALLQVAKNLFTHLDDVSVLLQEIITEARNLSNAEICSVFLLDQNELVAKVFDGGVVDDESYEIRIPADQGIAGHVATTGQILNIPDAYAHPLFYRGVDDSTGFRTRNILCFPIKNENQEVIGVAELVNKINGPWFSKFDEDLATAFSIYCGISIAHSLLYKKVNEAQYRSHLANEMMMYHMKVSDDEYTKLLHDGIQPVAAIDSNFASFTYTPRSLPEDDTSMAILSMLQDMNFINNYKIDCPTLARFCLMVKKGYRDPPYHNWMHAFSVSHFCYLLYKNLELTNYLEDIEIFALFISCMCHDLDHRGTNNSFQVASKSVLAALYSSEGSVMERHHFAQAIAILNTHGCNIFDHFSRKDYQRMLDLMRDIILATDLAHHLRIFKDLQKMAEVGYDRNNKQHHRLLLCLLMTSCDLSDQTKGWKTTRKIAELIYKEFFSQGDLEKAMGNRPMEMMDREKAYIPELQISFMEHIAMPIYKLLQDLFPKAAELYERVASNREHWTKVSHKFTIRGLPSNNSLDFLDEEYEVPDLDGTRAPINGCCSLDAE
Procedure: as §3

[4] = Age Week 4, 10 mg/kg p.o., ANOVA
[5] = Age Week 4, 30 mg/kg p.o., ANOVA
[6] = Age Week 6, 10 mg/kg p.o., ANOVA
[7] = Age Week 6, 30 mg/kg p.o., ANOVA
[8] = Age Week 8, 10 mg/kg p.o., ANOVA
[9] = Age Week 8, 30 mg/kg p.o., ANOVA
[10] = Age Week 12, 10 mg/kg p.o., ANOVA
[11] = Age Week 12, 30 mg/kg p.o., ANOVA
[12] = male, C57BL/6NCRL, mouse, 5 mg/kg, Brain, IV 5.0 (mg eq./kg)
[13] = male, C57BL/6NCRL, mouse, 5 mg/kg, Plasma, IV 5.0 (mg eq./kg)

For `CN1C(=O)c2nc(Cc3ccc(C(F)(F)F)cc3)[nH]c2N2C1=N[C@H]1CCC[C@H]12` [SCH-51866, (+)-cis-5,6a,7,8,9,9a-hexahydro-2-[4-[trifluro-methyl]phenylmethyl]-5-methyl-cylopent[4,5]imidazo [2,1-b]purin-4(3H)one], the IC50 (PDE3 Cat) was 17.3 µM, the IC50 (PDE4 Cat) was over 100 µM and the “effect on disease progression / endpoints (rotarod, grip strength, open field, survival)” value (R6/2 mice [1]) was “no improvement noted in any endpoint; also recorded: no effect in ameliorating disease progression”. For the same compound, the “Rear Climbing Test Rearing Frequency: p vs Vehicle-treated R6/2 mice” value (R6/2 mice [2]; Age Week 4, 10 mg/kg p.o.) was “p=0.507”, the “Rear Climbing Test Climbing Instances: p vs Vehicle-treated R6/2 mice” value (R6/2 mice [2]; [4]) was “ANOVA: p=0.484” and the “Rear Climbing Test Latency to Climb: p vs Vehicle-treated R6/2 mice” value (R6/2 mice [2]; [4]) was “ANOVA: p=0.365”. For the same compound, the “Rear Climbing Test Time Spent Climbing: p vs Vehicle-treated R6/2 mice” value (R6/2 mice [2]; [4]) was “ANOVA: p=0.853”, the “Rear Climbing Test Rearing Frequency: p vs Vehicle-treated R6/2 mice” value (R6/2 mice [2]; Age Week 4, 30 mg/kg p.o.) was “p=0.186” and the “Rear Climbing Test Climbing Instances: p vs Vehicle-treated R6/2 mice” value (R6/2 mice [2]; [5]) was “ANOVA: p=0.484”. The “Rear Climbing Test Latency to Climb: p vs Vehicle-treated R6/2 mice” value (R6/2 mice [2]; [5]) was “ANOVA: p=0.365”, the “Rear Climbing Test Time Spent Climbing: p vs Vehicle-treated R6/2 mice” value (R6/2 mice [2]; [5]) was “ANOVA: p=0.853” and the “Rear Climbing Test Climbing Instances: p vs Vehicle-treated R6/2 mice” value (R6/2 mice [2]; [6]) was “ANOVA: p=0.120”. The “Rear Climbing Test Latency to Climb: p vs Vehicle-treated R6/2 mice” value (R6/2 mice [2]; [6]) was “ANOVA: p=0.257”, the “Rear Climbing Test Rearing Frequency: p vs Vehicle-treated R6/2 mice” value (R6/2 mice [2]; [6]) was “ANOVA: p=0.203” and the “Rear Climbing Test Time Spent Climbing: p vs Vehicle-treated R6/2 mice” value (R6/2 mice [2]; [6]) was “ANOVA: p=0.291”. The “Rear Climbing Test Climbing Instances: p vs Vehicle-treated R6/2 mice” value (R6/2 mice [2]; [7]) was “ANOVA: p=0.120”, the “Rear Climbing Test Latency to Climb: p vs Vehicle-treated R6/2 mice” value (R6/2 mice [2]; [7]) was “ANOVA: p=0.257” and the “Rear Climbing Test Rearing Frequency: p vs Vehicle-treated R6/2 mice” value (R6/2 mice [2]; [7]) was “ANOVA: p=0.203”. For the same compound, the “Rear Climbing Test Time Spent Climbing: p vs Vehicle-treated R6/2 mice” value (R6/2 mice [2]; [7]) was “ANOVA: p=0.291”, the “Rear Climbing Test Climbing Instances: p vs Vehicle-treated R6/2 mice” value (R6/2 mice [2]; [8]) was “ANOVA: p=0.166” and the “Rear Climbing Test Latency to Climb: p vs Vehicle-treated R6/2 mice” value (R6/2 mice [2]; [8]) was “ANOVA: p=0.193”. For the same compound, the “Rear Climbing Test Rearing Frequency: p vs Vehicle-treated R6/2 mice” value (R6/2 mice [2]; [8]) was “ANOVA: p=0.782”, the “Rear Climbing Test Time Spent Climbing: p vs Vehicle-treated R6/2 mice” value (R6/2 mice [2]; [8]) was “ANOVA: p=0.750” and the “Rear Climbing Test Climbing Instances: p vs Vehicle-treated R6/2 mice” value (R6/2 mice [2]; [9]) was “ANOVA: p=0.166”. The “Rear Climbing Test Latency to Climb: p vs Vehicle-treated R6/2 mice” value (R6/2 mice [2]; [9]) was “ANOVA: p=0.193”, the “Rear Climbing Test Rearing Frequency: p vs Vehicle-treated R6/2 mice” value (R6/2 mice [2]; [9]) was “ANOVA: p=0.782” and the “Rear Climbing Test Time Spent Climbing: p vs Vehicle-treated R6/2 mice” value (R6/2 mice [2]; [9]) was “ANOVA: p=0.750”. For the same compound, the “Rear Climbing Test Climbing Instances: p vs Vehicle-treated R6/2 mice” value (R6/2 mice [2]; [10]) was “ANOVA: p=0.671”, the “Rear Climbing Test Latency to Climb: p vs Vehicle-treated R6/2 mice” value (R6/2 mice [2]; [10]) was “ANOVA: p=0.846” and the “Rear Climbing Test Rearing Frequency: p vs Vehicle-treated R6/2 mice” value (R6/2 mice [2]; [10]) was “ANOVA: p=0.122”. For the same compound, the “Rear Climbing Test Time Spent Climbing: p vs Vehicle-treated R6/2 mice” value (R6/2 mice [2]; [10]) was “ANOVA: p=0.724”, the “Rear Climbing Test Climbing Instances: p vs Vehicle-treated R6/2 mice” value (R6/2 mice [2]; [11]) was “ANOVA: p=0.671” and the “Rear Climbing Test Latency to Climb: p vs Vehicle-treated R6/2 mice” value (R6/2 mice [2]; [11]) was “ANOVA: p=0.846”. The “Rear Climbing Test Rearing Frequency: p vs Vehicle-treated R6/2 mice” value (R6/2 mice [2]; [11]) was “ANOVA: p=0.122”, the “Rear Climbing Test Time Spent Climbing: p vs Vehicle-treated R6/2 mice” value (R6/2 mice [2]; [11]) was “ANOVA: p=0.724” and the “rearing frequency and latency to climb a custom-made pencil holder, effect in words” value (R6/2 mice [2]; chronic administration in R6/2 mice) was “no improvement”. For the same compound, the “brain concentration at Tmax exceeds the biochemical IC50 for PDE1” value ([3]; after oral administration) was ~ 7 fold, the “time through which concentrations in brain were measurable for all animals” value ([3]; following dosing) was 8 h and the AUC(0-inf) [3, 12] was 8.23 µM·h. The AUC(0-t) [3, 12] was 8.18 µM·h, the half-life [3, 12] was 1.08 h and the Cmax ([3]; male, C57BL/6NCRL, mouse, 5 mg/kg, Brain, IV 5.0 (mg eq./kg), read-out: Observed Cmax) was 3560 nM. It also gave an AUC(0-inf) [3, 13] of 7.35 µM·h, an AUC(0-t) [3, 13] of 7.31 µM·h and a half-life [3, 13] of 3.87 h. For the same compound, the MRT ([3]; male, C57BL/6NCRL, mouse, 5 mg/kg, Plasma, IV 5.0 (mg eq./kg), read-out: Mean Residence Time (MRT)) was 2.57 h, the clearance ([3]; male, C57BL/6NCRL, mouse, 5 mg/kg, Plasma, IV 5.0 (mg eq./kg), read-out: Plasma Clearance (CLp) (converted)) was 29.2 mL/min/kg and the Vd ([3]; male, C57BL/6NCRL, mouse, 5 mg/kg, Plasma, IV 5.0 (mg eq./kg), read-out: Volume of Distribution at Steady State (Vdss)) was 4.48 L/kg. It also gave an AUC(0-t) ([3]; male, C57BL/6NCRL, mouse, 10 mg/kg, Brain, PO 10.0 (mg eq./kg)) of 2.2 µM·h, a Cmax ([3]; male, C57BL/6NCRL, mouse, 10 mg/kg, Brain, PO 10.0 (mg eq./kg), read-out: Observed Cmax) of 475 nM and a Tmax ([3]; male, C57BL/6NCRL, mouse, brain, iv, 5 mg/kg, Brain, IV 5.0 (mg eq./kg)) of 0.5 h. It also gave a Kp ([3]; male, C57BL/6NCRL, mouse, brain, oral, 10 mg eq./kg, mice, read-out: Brain-to-plasma concentration ratios) of 0.1 to 0.4, a Tmax ([3]; male, C57BL/6NCRL, mouse, brain, po, 10 mg/kg, Brain, PO 10.0 (mg eq./kg)) of 2 h and a Cmax ([3]; male, C57BL/6NCRL, mouse, plasma, 10 mg/kg po in mice, read-out: plasma Cmax exposure) of 2400 nM. For the same compound, the “aggregate load in the cortex and hippocampus (Seprion ligand ELISA)” value (aggregated HTT) was “no effect”, the inhibition at 10 µM (PDE1B) was 100% and the inhibition at 10 µM (PDE2A) was 92%.
